According to US11034650B2, “Compounds useful for treating a Mannheimia haemolytica or Histophilus somni infection” (Intervet Inc., priority 2016, dated 2021):
Converted amounts (≈) assume the structure as drawn.

How the values were obtained:
Type in all cases: cell-based
[1] = test system: Mannheimia haemolytica MH 6357 (M7/2, reference strain, cattle infection strain); assay: MIC, broth-microdilution (CLSI VET01-A4), strain MH 6357; conditions: Mannheimia haemolytica strain MH 6357, broth-microdilution; unit assumed
In short: (§1)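 The compound was titrated in twofold steps in microdilution trays. Absence of turbidity, checked without instruments, marked the MIC at the lowest such concentration.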

[2] = test system: Mannheimia haemolytica MH 13065 (XB0446-6003.9, BRD field isolate); assay: MIC, broth-microdilution (CLSI VET01-A4), strain MH 13065; conditions: Mannheimia haemolytica strain MH 13065, broth-microdilution; unit assumed
In short: as §1

[3] = test system: Pasteurella multocida PM 10775 (080130003051, BRD field isolate); assay: MIC, broth-microdilution (CLSI VET01-A4), strain PM 10775; conditions: Pasteurella multocida strain PM 10775, broth-microdilution; unit assumed
In short: as §1

[4] = test system: Mannheimia haemolytica MH 10720 (154, BRD field isolate); assay: MIC, broth-microdilution (CLSI VET01-A4), strain MH 10720; conditions: Mannheimia haemolytica strain MH 10720, broth-microdilution; unit assumed
In short: as §1

[5] = test system: Pasteurella multocida PM 6267 (P 2225 (L386), reference strain, mouse infection strain); assay: MIC, broth-microdilution (CLSI VET01-A4), strain PM 6267; conditions: Pasteurella multocida strain PM 6267, broth-microdilution; unit assumed
In short: as §1

[6] = test system: Mannheimia haemolytica MH 13093 (XB0472-6014.1, BRD field isolate); assay: MIC, broth-microdilution (CLSI VET01-A4), strain MH 13093; conditions: Mannheimia haemolytica strain MH 13093, broth-microdilution; unit assumed
In short: as §1

[7] = test system: Pasteurella multocida PM 6391 (ATCC 43137, reference strain); assay: MIC, broth-microdilution (CLSI VET01-A4), strain PM 6391; conditions: Pasteurella multocida strain PM 6391, broth-microdilution; unit assumed
In short: as §1

[8] = test system: Mannheimia haemolytica MH 6374 (ATCC 33396, reference strain); assay: MIC, broth-microdilution (CLSI VET01-A4), strain MH 6374; conditions: Mannheimia haemolytica strain MH 6374, broth-microdilution; unit assumed
In short: as §1

[9] = test system: Pasteurella multocida PM 12080 (IV102277-0093, BRD field isolate); assay: MIC, broth-microdilution (CLSI VET01-A4), strain PM 12080; conditions: Pasteurella multocida strain PM 12080, broth-microdilution; unit assumed
In short: as §1

[10] = test system: Mannheimia haemolytica MH 12587 (1071, BRD field isolate, macrolide-resistance: erm+, E+); assay: MIC, broth-microdilution (CLSI VET01-A4), strain MH 12587; conditions: Mannheimia haemolytica strain MH 12587, broth-microdilution; unit assumed
In short: as §1

Structure (SMILES): CC(C)(O)[C@H](NC(=O)c1ccc(C#Cc2ccc(CNCc3ccco3)nc2)cc1)C(=O)NO [Compound 332]
- MIC MH 6357 [1]: 0.4 µg/mL (≈ 0.865 µM)
- MIC MH 13065 [2]: 0.8 µg/mL (≈ 1.73 µM)
- MIC PM 10775 [3]: ≤ 0.1 µg/mL
- MIC MH 10720 [4]: ≤ 0.1 µg/mL
- MIC PM 6267 [5]: 0.4 µg/mL (≈ 0.865 µM)
- MIC MH 13093 [6]: 0.8 µg/mL (≈ 1.73 µM)
- MIC PM 6391 [7]: 0.4 µg/mL (≈ 0.865 µM)
- MIC MH 6374 [8]: 0.4 µg/mL (≈ 0.865 µM)
- MIC PM 12080 [9]: 0.2 µg/mL (≈ 0.432 µM)
- MIC MH 12587 [10]: 1.6 µg/mL (≈ 3.46 µM)

Structure (SMILES): CON=C(C)[C@H](NC(=O)c1ccc(C#Cc2ccc(CNC3CCC3)cc2)cc1)C(=O)NO [Compound 385]
- MIC MH 6357 [1]: 3.1 µg/mL (≈ 6.91 µM)
- MIC MH 13065 [2]: 3.1 µg/mL (≈ 6.91 µM)
- MIC PM 10775 [3]: 0.8 µg/mL (≈ 1.78 µM)
- MIC MH 10720 [4]: 1.6 µg/mL (≈ 3.57 µM)
- MIC PM 6267 [5]: 25 µg/mL (≈ 55.7 µM)
- MIC MH 13093 [6]: 6.3 µg/mL (≈ 14 µM)
- MIC PM 6391 [7]: 0.2 µg/mL (≈ 0.446 µM)
- MIC MH 6374 [8]: 6.3 µg/mL (≈ 14 µM)
- MIC PM 12080 [9]: 0.4 µg/mL (≈ 0.892 µM)
- MIC MH 12587 [10]: 1.6 µg/mL (≈ 3.57 µM)

Structure (SMILES): CON=C(C)[C@H](NC(=O)c1ccc(C#Cc2ccc(CNCc3cccnc3)cc2)cc1)C(=O)NO [Compound 388]
- MIC MH 6357 [1]: 0.4 µg/mL (≈ 0.824 µM)
- MIC MH 13065 [2]: 0.8 µg/mL (≈ 1.65 µM)
- MIC PM 10775 [3]: 0.2 µg/mL (≈ 0.412 µM)
- MIC MH 10720 [4]: 0.8 µg/mL (≈ 1.65 µM)
- MIC PM 6267 [5]: 3.1 µg/mL (≈ 6.38 µM)
- MIC MH 13093 [6]: 0.8 µg/mL (≈ 1.65 µM)
- MIC PM 6391 [7]: ≤ 0.1 µg/mL
- MIC MH 6374 [8]: 0.8 µg/mL (≈ 1.65 µM)
- MIC PM 12080 [9]: ≤ 0.1 µg/mL
- MIC MH 12587 [10]: 0.2 µg/mL (≈ 0.412 µM)

Structure (SMILES): CC(C)(C(NC(=O)c1ccc(C#Cc2ccc(CN3CCOCC3)nc2)cc1)C(=O)NO)S(C)(=O)=O (centres unmarked) [Compound 350]
- MIC MH 6357 [1]: 6.3 µg/mL (≈ 12.2 µM)
- MIC MH 13065 [2]: 6.3 µg/mL (≈ 12.2 µM)
- MIC PM 10775 [3]: ≤ 0.1 µg/mL
- MIC MH 10720 [4]: 1.6 µg/mL (≈ 3.11 µM)
- MIC PM 6267 [5]: 6.3 µg/mL (≈ 12.2 µM)
- MIC MH 13093 [6]: 6.3 µg/mL (≈ 12.2 µM)
- MIC PM 6391 [7]: 0.8 µg/mL (≈ 1.55 µM)
- MIC MH 6374 [8]: 6.3 µg/mL (≈ 12.2 µM)
- MIC PM 12080 [9]: 0.4 µg/mL (≈ 0.777 µM)
- MIC MH 12587 [10]: 12.5 µg/mL (≈ 24.3 µM)

Structure (SMILES): CSC(C)(C)[C@H](NC(=O)c1ccc(C#Cc2ccc(CNCc3ccco3)cc2)cc1)C(=O)NO [Compound 250]
- MIC MH 6357 [1]: 0.4 µg/mL (≈ 0.814 µM)
- MIC MH 13065 [2]: 0.4 µg/mL (≈ 0.814 µM)
- MIC PM 10775 [3]: ≤ 0.1 µg/mL
- MIC MH 10720 [4]: ≤ 0.1 µg/mL
- MIC PM 6267 [5]: ≤ 0.1 µg/mL
- MIC MH 13093 [6]: 0.4 µg/mL (≈ 0.814 µM)
- MIC PM 6391 [7]: 0.2 µg/mL (≈ 0.407 µM)
- MIC MH 6374 [8]: 0.8 µg/mL (≈ 1.63 µM)
- MIC PM 12080 [9]: ≤ 0.1 µg/mL
- MIC MH 12587 [10]: 0.8 µg/mL (≈ 1.63 µM)

Structure (SMILES): CON=C(C)[C@H](NC(=O)c1ccc(C#Cc2ccc(CNCc3ccnc(Cl)c3)cc2)cc1)C(=O)NO [Compound 389]
- MIC MH 6357 [1]: 0.8 µg/mL (≈ 1.54 µM)
- MIC MH 13065 [2]: 1.6 µg/mL (≈ 3.08 µM)
- MIC PM 10775 [3]: 0.4 µg/mL (≈ 0.769 µM)
- MIC MH 10720 [4]: 0.8 µg/mL (≈ 1.54 µM)
- MIC PM 6267 [5]: 3.1 µg/mL (≈ 5.96 µM)
- MIC MH 13093 [6]: 1.6 µg/mL (≈ 3.08 µM)
- MIC PM 6391 [7]: ≤ 0.1 µg/mL
- MIC MH 6374 [8]: 1.6 µg/mL (≈ 3.08 µM)
- MIC PM 12080 [9]: 0.4 µg/mL (≈ 0.769 µM)
- MIC MH 12587 [10]: 0.4 µg/mL (≈ 0.769 µM)

Structure (SMILES): CC(C)(O)[C@H](NC(=O)c1ccc(C#Cc2ccc(CNC3CC3)s2)cc1)C(=O)NO [Compound 290]
- MIC MH 6357 [1]: ≤ 0.1 µg/mL
- MIC MH 13065 [2]: ≤ 0.1 µg/mL
- MIC PM 10775 [3]: ≤ 0.1 µg/mL
- MIC MH 10720 [4]: ≤ 0.1 µg/mL
- MIC PM 6267 [5]: ≤ 0.1 µg/mL
- MIC MH 13093 [6]: 0.2 µg/mL (≈ 0.468 µM)
- MIC PM 6391 [7]: 0.2 µg/mL (≈ 0.468 µM)
- MIC MH 6374 [8]: ≤ 0.1 µg/mL
- MIC PM 12080 [9]: ≤ 0.1 µg/mL
- MIC MH 12587 [10]: 0.4 µg/mL (≈ 0.936 µM)

Structure (SMILES): CC[C@H](C)[C@H](NC(=O)c1ccc(C#Cc2ccc(CNC3CCC3)cc2)cc1)C(=O)NO [Compound 197]
- MIC MH 6357 [1]: 1.6 µg/mL (≈ 3.69 µM)
- MIC MH 13065 [2]: 1.6 µg/mL (≈ 3.69 µM)
- MIC PM 10775 [3]: ≤ 0.1 µg/mL
- MIC MH 10720 [4]: 0.4 µg/mL (≈ 0.923 µM)
- MIC PM 6267 [5]: ≤ 0.1 µg/mL
- MIC MH 13093 [6]: 3.1 µg/mL (≈ 7.15 µM)
- MIC PM 6391 [7]: 0.4 µg/mL (≈ 0.923 µM)
- MIC MH 6374 [8]: 3.1 µg/mL (≈ 7.15 µM)
- MIC PM 12080 [9]: 0.2 µg/mL (≈ 0.461 µM)
- MIC MH 12587 [10]: 6.3 µg/mL (≈ 14.5 µM)

Structure (SMILES): CC(C)[C@H](NC(=O)c1ccc(C#Cc2ccc(CNC3CCCCC3)cc2)cc1)C(=O)NO [Compound 208]
- MIC MH 6357 [1]: 12.5 µg/mL (≈ 27.9 µM)
- MIC MH 13065 [2]: 12.5 µg/mL (≈ 27.9 µM)
- MIC PM 10775 [3]: ≤ 0.1 µg/mL
- MIC MH 10720 [4]: 3.1 µg/mL (≈ 6.93 µM)
- MIC PM 6267 [5]: 0.2 µg/mL (≈ 0.447 µM)
- MIC MH 13093 [6]: 12.5 µg/mL (≈ 27.9 µM)
- MIC PM 6391 [7]: 0.4 µg/mL (≈ 0.894 µM)
- MIC MH 6374 [8]: 12.5 µg/mL (≈ 27.9 µM)
- MIC PM 12080 [9]: 0.2 µg/mL (≈ 0.447 µM)
- MIC MH 12587 [10]: 25 µg/mL (≈ 55.9 µM)

Structure (SMILES): Cc1ccc(CNCc2ccc(C#Cc3ccc(C(=O)N[C@H](C(=O)NO)C(C)C)cc3)cc2)cc1 [Compound 172]
- MIC MH 6357 [1]: 0.4 µg/mL (≈ 0.852 µM)
- MIC MH 13065 [2]: 0.8 µg/mL (≈ 1.7 µM)
- MIC PM 10775 [3]: ≤ 0.1 µg/mL
- MIC MH 10720 [4]: 0.4 µg/mL (≈ 0.852 µM)
- MIC PM 6267 [5]: 0.2 µg/mL (≈ 0.426 µM)
- MIC MH 13093 [6]: 0.8 µg/mL (≈ 1.7 µM)
- MIC PM 6391 [7]: 0.4 µg/mL (≈ 0.852 µM)
- MIC MH 6374 [8]: 0.8 µg/mL (≈ 1.7 µM)
- MIC PM 12080 [9]: 0.4 µg/mL (≈ 0.852 µM)
- MIC MH 12587 [10]: 1.6 µg/mL (≈ 3.41 µM)

Structure (SMILES): C=CCNCc1ccc(C#Cc2ccc(C(=O)N[C@H](C(=O)NO)C(C)=NOC)cc2)cc1 [Compound 379]
- MIC MH 6357 [1]: 0.8 µg/mL (≈ 1.84 µM)
- MIC MH 13065 [2]: 1.6 µg/mL (≈ 3.68 µM)
- MIC PM 10775 [3]: 0.4 µg/mL (≈ 0.921 µM)
- MIC MH 10720 [4]: 0.8 µg/mL (≈ 1.84 µM)
- MIC PM 6267 [5]: 3.1 µg/mL (≈ 7.13 µM)
- MIC MH 13093 [6]: 1.6 µg/mL (≈ 3.68 µM)
- MIC PM 6391 [7]: ≤ 0.1 µg/mL
- MIC MH 6374 [8]: 1.6 µg/mL (≈ 3.68 µM)
- MIC PM 12080 [9]: 0.4 µg/mL (≈ 0.921 µM)
- MIC MH 12587 [10]: 0.4 µg/mL (≈ 0.921 µM)
